Data from ChEMBL document CHEMBL1201862, “PubChem BioAssay data set” (2004).
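Assay format: 96-well plates, 48-hour exposure. At the GI50, growth is halved.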 The source made the active and inactive calls. No stated cut-off is given here; in the data, active = GI50 up to about 1.1 µM and inactive = higher.

Legend:
Test in all cases: NCI-60 cell line screen, 48 h
HOP-62 = system: HOP-62
SF-268 = system: SF-268
786-0 = system: 786-0
HCC 2998 = system: HCC 2998
MDA-N = system: MDA-N
SK-MEL-2 = system: SK-MEL-2
SNB-75 = system: SNB-75
UACC-62 = system: UACC-62
UACC-257 = system: UACC-257
OVCAR-8 = system: OVCAR-8
MCF7 = system: MCF7
SK-MEL-28 = system: SK-MEL-28
RXF 393 = system: RXF 393
SN12C = system: SN12C
SF-295 = system: SF-295
EKVX = system: EKVX
SK-MEL-5 = system: SK-MEL-5
SNB-19 = system: SNB-19
A549 = system: A549

Row | SMILES | GI50 (HOP-62) | GI50 (SF-268) | GI50 (786-0) | GI50 (HCC 2998) | GI50 (MDA-N) | GI50 (SK-MEL-2) | GI50 (SNB-75) | GI50 (UACC-62) | GI50 (UACC-257) | GI50 (OVCAR-8) | GI50 (MCF7) | GI50 (SK-MEL-28) | GI50 (RXF 393) | GI50 (SN12C) | GI50 (SF-295) | GI50 (EKVX) | GI50 (SK-MEL-5) | GI50 (SNB-19) | GI50 (A549)
1 | Nc1ncn(C2OC(COP(=O)(O)O)C(O)C2O)c(=O)n1 (stereo unspecified) | > 77.4 µM (inactive) | > 92 µM (inactive) | > 86.3 µM (inactive) | > 100 µM (inactive) | > 100 µM (inactive) | > 100 µM (inactive) | > 100 µM (inactive) | > 100 µM (inactive) | > 100 µM (inactive) | 40.7 µM (inactive) | > 71 µM (inactive) | > 100 µM (inactive) | > 100 µM (inactive) | 63.5 µM (inactive) | > 100 µM (inactive) | > 58.2 µM (inactive) | > 100 µM (inactive) | > 100 µM (inactive) | 45.9 µM (inactive)
2 | CC(=O)CC1(C)OC(N)=C(C#N)C1(C#N)C#N (stereo unspecified) | 55.1 µM (inactive) | > 100 µM (inactive) | > 100 µM (inactive) | > 100 µM (inactive) | > 100 µM (inactive) | > 100 µM (inactive) | 47 µM (inactive) | > 100 µM (inactive) | > 100 µM (inactive) | > 100 µM (inactive) | > 100 µM (inactive) | > 100 µM (inactive) | > 100 µM (inactive) | > 100 µM (inactive) | > 100 µM (inactive) | > 100 µM (inactive) | 42.1 µM (inactive) | > 100 µM (inactive) | > 100 µM (inactive)
3 | COC(=O)C1SC(SC)=NC12c1ccccc1Nc1ccccc12 (stereo unspecified) | 41.8 µM (inactive) | 37.4 µM (inactive) | 35.2 µM (inactive) | 24.5 µM (inactive) | 26.8 µM (inactive) | 21.5 µM (inactive) | 51.1 µM (inactive) | 16.6 µM (inactive) | 25.7 µM (inactive) | 33.3 µM (inactive) | 27.7 µM (inactive) | 21.1 µM (inactive) | 67.3 µM (inactive) | 30.7 µM (inactive) | 32.7 µM (inactive) | 30.1 µM (inactive) | 17.2 µM (inactive) | 40.5 µM (inactive) | 28.3 µM (inactive)
4 | Cc1nn2c(=O)c([N+](=O)[O-])c(/C=C/c3ccco3)nc2s1 | > 100 µM (inactive) | 36.4 µM (inactive) | 76 µM (inactive) | > 100 µM (inactive) | 26.9 µM (inactive) | 57 µM (inactive) | 31.5 µM (inactive) | 65.3 µM (inactive) | 87.5 µM (inactive) | 32.7 µM (inactive) | 38.5 µM (inactive) | 48.6 µM (inactive) | 28.7 µM (inactive) | 64.9 µM (inactive) | 91 µM (inactive) | 26.4 µM (inactive) | 25.9 µM (inactive) | 59 µM (inactive) | 53.5 µM (inactive)
5 | CN1CCc2cc(N)cc3c2C1Cc1ccc2c(c1-3)OCO2 (stereo unspecified) | 34.8 µM (inactive) | 33.5 µM (inactive) | 26.9 µM (inactive) | 19.6 µM (inactive) | 19.2 µM (inactive) | 36.1 µM (inactive) | 31.9 µM (inactive) | 22.8 µM (inactive) | 22.5 µM (inactive) | 21.6 µM (inactive) | 29.4 µM (inactive) | 27.2 µM (inactive) | 27.4 µM (inactive) | 26.9 µM (inactive) | 31.9 µM (inactive) | 50.9 µM (inactive) | 20.4 µM (inactive) | 61.8 µM (inactive) | 37.2 µM (inactive)
6 | C/C=C/c1cc2c(cc1O)CC[C@@H]1[C@@H]2CC[C@]2(C)[C@@H](O)CC[C@@H]12 | 0.0791 µM (active) | 0.217 µM (active) | 0.053 µM (active) | 0.705 µM (active) | 0.0215 µM (active) | 1.51 µM (inactive) | 0.188 µM (active) | 0.0246 µM (active) | 0.132 µM (active) | 0.182 µM (active) | 0.171 µM (active) | 1.49 µM (inactive) | 0.1 µM (active) | 0.08 µM (active) | 0.966 µM (active) | 5.07 µM (inactive) | 0.0289 µM (active) | 0.0695 µM (active) | 0.0536 µM (active)
7 | O=C(NCCSSCCNC(=O)/C(Cc1ccc(O)c(Br)c1)=N/O)/C(Cc1ccc(O)c(Br)c1)=N/O [PSAMMAPLIN A] | 0.885 µM (active) | 1.62 µM (inactive) | 2.07 µM (inactive) | 2.17 µM (inactive) | 1.6 µM (inactive) | 1.1 µM (active) | 0.889 µM (active) | 1.72 µM (inactive) | 1.6 µM (inactive) | 1.52 µM (inactive) | 2.02 µM (inactive) | 3.16 µM (inactive) | 0.796 µM (active) | 1.43 µM (inactive) | 1.34 µM (inactive) | 4.49 µM (inactive) | 0.927 µM (active) | 2.08 µM (inactive) | 1.44 µM (inactive)
8 | CCCCCC(/C=C/[C@@H]1[C@@H](C(O)CCCCCC(=O)OC)C(=O)C[C@H]1O[Si](C)(C)C(C)(C)C)OCOCCOC (stereo partly specified) | 16.9 µM (inactive) | 14 µM (inactive) | 15.6 µM (inactive) | 23 µM (inactive) | 8.51 µM (inactive) | 17 µM (inactive) | 10.4 µM (inactive) | 13.1 µM (inactive) | 7.85 µM (inactive) | 16.5 µM (inactive) | 4.76 µM (inactive) | 15.3 µM (inactive) | 18.6 µM (inactive) | 19.7 µM (inactive) | 17.9 µM (inactive) | 18.8 µM (inactive) | 14.5 µM (inactive) | 15.3 µM (inactive) | 24.6 µM (inactive)
9 | Cc1cc(N(CCC#N)CCC#N)ccc1C(=N/NC(=O)c1cc(Cl)ccc1O)/N=N/c1cccc(Cl)c1 | 13.2 µM (inactive) | 11.8 µM (inactive) | 11.5 µM (inactive) | 12 µM (inactive) | 29.5 µM (inactive) | 10.8 µM (inactive) | 13.5 µM (inactive) | 10.6 µM (inactive) | 15.2 µM (inactive) | 12.1 µM (inactive) | 8.79 µM (inactive) | 16 µM (inactive) | 10.7 µM (inactive) | 19.1 µM (inactive) | 22 µM (inactive) | 14.4 µM (inactive) | 13.7 µM (inactive) | 22.9 µM (inactive) | 17.1 µM (inactive)
10 | COc1cc(CN2CCCCC2)cc2cc(C(=O)O)c(=O)oc12 | > 100 µM (inactive) | > 100 µM (inactive) | > 100 µM (inactive) | > 100 µM (inactive) | > 100 µM (inactive) | > 100 µM (inactive) | > 100 µM (inactive) | > 100 µM (inactive) | > 100 µM (inactive) | > 100 µM (inactive) | > 100 µM (inactive) | > 100 µM (inactive) | > 100 µM (inactive) | > 100 µM (inactive) | > 100 µM (inactive) | > 100 µM (inactive) | > 100 µM (inactive) | > 100 µM (inactive) | > 100 µM (inactive)
11 | C=C(C)/C=C/C(O)[C@](C)(O)[C@H]1[C@H](O)C[C@@]2(C)[C@@H]3CCc4c(cc(OC5OC(CO)C(O)C(O)C5O)c(O)c4C)C3(C)C(=O)C[C@]12C (stereo partly specified) | > 100 µM (inactive) | > 100 µM (inactive) | > 100 µM (inactive) | > 100 µM (inactive) | > 100 µM (inactive) | > 100 µM (inactive) | > 100 µM (inactive) | 49 µM (inactive) | > 100 µM (inactive) | > 100 µM (inactive) | > 100 µM (inactive) | > 100 µM (inactive) | > 100 µM (inactive) | > 100 µM (inactive) | > 100 µM (inactive) | > 100 µM (inactive) | > 100 µM (inactive) | > 100 µM (inactive) | > 100 µM (inactive)
12 | c1ccc(CC2COC(c3cccs3)=N2)cc1 (stereo unspecified) | > 100 µM (inactive) | > 91 µM (inactive) | > 100 µM (inactive) | > 73.8 µM (inactive) | > 100 µM (inactive) | 43.8 µM (inactive) | 42.6 µM (inactive) | > 100 µM (inactive) | > 100 µM (inactive) | > 100 µM (inactive) | 17.9 µM (inactive) | > 100 µM (inactive) | 24.5 µM (inactive) | > 64.4 µM (inactive) | > 86.3 µM (inactive) | 66.2 µM (inactive) | 57.7 µM (inactive) | > 70.3 µM (inactive) | 92.7 µM (inactive)
13 | Cc1cc2nc3c(C#N)c(C)c(CCCl)c(Cl)n3c2cc1C | 2.44 µM (inactive) | 2.36 µM (inactive) | 2 µM (inactive) | 2.97 µM (inactive) | 2.61 µM (inactive) | 1.87 µM (inactive) | 1.87 µM (inactive) | 1.93 µM (inactive) | 2.23 µM (inactive) | 2.63 µM (inactive) | 2.9 µM (inactive) | 4.52 µM (inactive) | 1.81 µM (inactive) | 1.92 µM (inactive) | 3.49 µM (inactive) | 10.5 µM (inactive) | 4.39 µM (inactive) | 10.8 µM (inactive) | 7.19 µM (inactive)
14 | CC[C@@H]1/C=C/C=C/C[C@H](C)[C@@H](O)[C@@H](C)C(=O)[C@H](C)[C@@H](O)[C@H](C)C(=O)[C@H](C)[C@@H](O)[C@H](C)/C=C/C(=O)O[C@H]2[C@@H](C)[C@@H](CC1)O[C@@]1(CC[C@@H](C)[C@@H](CC(C)O)O1)[C@@H]2C (stereo partly specified) | 4.38 µM (inactive) | 6.98 µM (inactive) | 5.9 µM (inactive) | 1.78 µM (inactive) | 3.06 µM (inactive) | 4.58 µM (inactive) | 0.253 µM (active) | 3.32 µM (inactive) | < 0.0025 µM (active) | 0.00464 µM (active) | 0.00269 µM (active) | 10.6 µM (inactive) | 3.07 µM (inactive) | 1.94 µM (inactive) | < 0.0025 µM (active) | < 0.0025 µM (active) | < 0.0025 µM (active) | 0.00491 µM (active) | 0.012 µM (active)
